Assay [1] has as its target Coagulation factor X (Homo sapiens, UniProt P00742). Briefly: Inhibition of human factor 10a.
For assay [2], the system named is Plasma. Briefly: Anticoagulant activity in human plasma assessed as concentration required to double prothrombin-based clotting time. The class given is functional.

Each structure is given as a SMILES string. Bounds are passed on as bounds.

Chain of Coagulation factor X (P00742 41-179 limits assumed): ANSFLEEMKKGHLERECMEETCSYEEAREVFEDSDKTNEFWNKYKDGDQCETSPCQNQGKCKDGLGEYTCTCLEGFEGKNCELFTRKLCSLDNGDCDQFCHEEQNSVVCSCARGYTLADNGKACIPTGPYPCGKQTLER
Chain of Coagulation factor X (P00742 235-488 limits assumed): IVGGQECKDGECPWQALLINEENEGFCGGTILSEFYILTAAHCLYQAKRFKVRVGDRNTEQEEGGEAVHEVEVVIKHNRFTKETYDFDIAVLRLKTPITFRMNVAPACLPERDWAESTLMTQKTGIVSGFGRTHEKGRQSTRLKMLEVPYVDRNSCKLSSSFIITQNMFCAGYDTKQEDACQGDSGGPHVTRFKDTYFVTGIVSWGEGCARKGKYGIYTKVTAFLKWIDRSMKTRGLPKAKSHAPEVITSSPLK

As for `COc1ccc(N/C(=N\C(=O)C2CCN(C(=O)c3ccccc3)CC2)N[C@H]2CCCCN(CC(=O)N3CCCC3)C2=O)cc1`, the IC50 (usually the midpoint of a concentration-inhibition curve) in assay [1] was 506 nM. Also, in assay [2], the Activity turned out to be 48 µM.
The corresponding values for `Cc1cc2cc(N/C(=N\C(=O)C3CCN(C(=O)c4ccccc4)CC3)N[C@H]3CCCCN(CC(=O)N4CCCC4)C3=O)ccc2o1` are 10 nM and 7.5 µM.
The matching figures for `Cc1cc2cc(N/C(=N\C(=O)c3sc(C)nc3C)N[C@H]3CCCCN(CC(=O)N4CCCC4)C3=O)ccc2o1`: 17 nM and 42 µM.
With `COc1ccc(NC(=N[C@H]2CCCCN(CC(=O)N3CCCC3)C2=O)NC(=O)c2ccc(N(C)C)cc2)cc1`, in assay [1], the IC50 was 403 nM.
On the same count and under the same terms, then `COc1ccc(NC(=N[C@H]2CCCCN(CC(=O)N3CCCC3)C2=O)NC(=O)c2cc(OC)cc(OC)c2)cc1`, with 872 nM.
In the case of `Cc1cc2cc(N/C(=N\C(=O)c3ccccc3)N[C@H]3CCCCN(CC(=O)N4CCCC4)C3=O)ccc2o1`, the Activity in assay [2] stood at 48 µM.
On to `COc1ccc(NC(=N[C@H]2CCCCN(CC(=O)N3CCCC3)C2=O)NC(=O)c2ccc(F)c(F)c2)cc1`, for which the IC50 in assay [1] is 272 nM.
As to `Cc1cccc(N/C(=N\C(=O)c2sc(C)nc2C)N[C@H]2CCCCN(CC(=O)N3CCCC3)C2=O)c1`, it took 462 nM to reach half-maximal inhibition in assay [1] (IC50). The Activity in assay [2] is >50 µM.
In assay [1], `COc1ccc(N/C(=N\C(=O)c2cccc(OC)c2)N[C@H]2CCCCN(CC(=O)N3CCCC3)C2=O)cc1` came in with an IC50 of 193 nM.
Still for that read-out and setting: then `Cc1cccc(NC(=N[C@H]2CCCCN(CC(=O)N3CCCC3)C2=O)NC(=O)c2cccc(F)c2)c1`, with 373 nM.
Still for that read-out and setting: the result for `Cc1cccc(N/C(=N\C(=O)c2ccc(F)cc2)N[C@H]2CCCCN(CC(=O)N3CCCC3)C2=O)c1` reads 222 nM; that for `Cc1cccc(NC(=N[C@H]2CCCCN(CC(=O)N3CCCC3)C2=O)NC(=O)c2ccc(N(C)C)cc2)c1`, 517 nM; that for `COc1ccc(NC(=N[C@H]2CCCCN(CC(=O)N3CCCC3)C2=O)NC(=O)c2ccc(Cl)cc2)cc1`, 294 nM.
The same measure, in the same setting: then `COc1ccc(NC(=N[C@H]2CCCCN(CC(=O)N3CCCC3)C2=O)NC(=O)c2cc(Cl)cc(Cl)c2)cc1`, with 546 nM; and `COc1ccc(NC(=N[C@H]2CCCCN(CC(=O)N3CCCC3)C2=O)NC(=O)c2ccccc2)cc1`, with 246 nM.
Compound `Cc1cccc(NC(=N[C@H]2CCCCN(CC(=O)N3CCCC3)C2=O)NC(=O)c2ccc(F)c(F)c2)c1` returned an IC50 in assay [1] of 271 nM.
Compound `COc1ccc(NC(=N[C@H]2CCCCN(CC(=O)N3CCCC3)C2=O)NC(=O)c2cccc(Cl)c2)cc1` came in with a half-inhibitory concentration (IC50) in assay [1] of 267 nM.
Still for that read-out and setting: then `COc1ccc(C(=O)NC(=N[C@H]2CCCCN(CC(=O)N3CCCC3)C2=O)Nc2cccc(C)c2)cc1OC`, with 400 nM; and `Cc1cccc(NC(=N[C@H]2CCCCN(CC(=O)N3CCCC3)C2=O)NC(=O)c2ccccc2)c1`, with 245 nM.
In turn, `Cc1cccc(N/C(=N\C(=O)c2ccno2)N[C@H]2CCCCN(CC(=O)N3CCCC3)C2=O)c1` yielded an IC50 in assay [1] of 628 nM. In addition, in assay [2], the Activity amounted to 50 µM.
In the case of `Cc1cccc(N/C(=N\C(=O)c2ccc(Cl)cc2)N[C@H]2CCCCN(CC(=O)N3CCCC3)C2=O)c1`, inhibition in assay [1] was half-maximal at 198 nM (IC50).
The same measure, in the same setting: then `COc1cc(OC)cc(C(=O)/N=C(\Nc2cccc(C)c2)N[C@H]2CCCCN(CC(=O)N3CCCC3)C2=O)c1`, with 1160 nM; and `COc1cccc(C(=O)NC(=N[C@H]2CCCCN(CC(=O)N3CCCC3)C2=O)Nc2cccc(C)c2)c1`, with 276 nM.
Take `Cc1cc2cc(N/C(=N\C(=O)c3ccno3)N[C@H]3CCCCN(CC(=O)N4CCCC4)C3=O)ccc2o1`: it took 14 nM to reach half-maximal inhibition in assay [1] (IC50). Further, the Activity in assay [2] is 17.7 µM.
The corresponding values for `Cc1cccc(N/C(=N\C(=O)C2CCN(C(=O)c3ccccc3)CC2)N[C@H]2CCCCN(CC(=O)N3CCCC3)C2=O)c1` are 1070 nM and >50 µM.
The compound `COc1ccc(N/C(=N\C(=O)c2sc(C)nc2C)N[C@H]2CCCCN(CC(=O)N3CCCC3)C2=O)cc1` gave an IC50 in assay [1] of 386 nM. Also, the Activity in assay [2] was >50 µM.
`COc1ccc(N/C(=N\C(=O)c2ccc(OC)cc2)N[C@H]2CCCCN(CC(=O)N3CCCC3)C2=O)cc1` displayed an IC50 in assay [1] of 227 nM.
Regarding `Cc1cccc(NC(=N[C@H]2CCCCN(CC(=O)N3CCCC3)C2=O)NC(=O)c2cc(Cl)cc(Cl)c2)c1`, 835 nM corresponded to half-maximal inhibition in assay [1] (IC50).
As for `COc1ccc(NC(=N[C@H]2CCCCN(CC(=O)N3CCCC3)C2=O)NC(=O)c2cc(F)cc(F)c2)cc1`, in assay [1], the IC50 amounted to 208 nM.
In turn, `COc1ccc(N/C(=N\C(=O)c2ccno2)N[C@H]2CCCCN(CC(=O)N3CCCC3)C2=O)cc1` displayed an IC50 in assay [1] of 380 nM. Moreover, the Activity in assay [2] was 45 µM.
Compound `Cc1cccc(NC(=N[C@H]2CCCCN(CC(=O)N3CCCC3)C2=O)NC(=O)c2cccc(Cl)c2)c1` came in with an IC50 in assay [1] of 371 nM.
Still for that read-out and setting: the result for `COc1ccc(C(=O)NC(=N[C@H]2CCCCN(CC(=O)N3CCCC3)C2=O)Nc2cccc(C)c2)cc1` reads 709 nM.
Still for that read-out and setting: then `COc1ccc(NC(=N[C@H]2CCCCN(CC(=O)N3CCCC3)C2=O)NC(=O)c2cccc(F)c2)cc1`, with 256 nM.
Same read-out and setting: the result for `COc1ccc(N/C(=N\C(=O)c2ccc(F)cc2)N[C@H]2CCCCN(CC(=O)N3CCCC3)C2=O)cc1` reads 368 nM; that for `Cc1cccc(NC(=N[C@H]2CCCCN(CC(=O)N3CCCC3)C2=O)NC(=O)c2cc(F)cc(F)c2)c1`, 396 nM; that for `COc1ccc(N/C(=N\C(=O)c2ccc(OC)c(OC)c2)N[C@H]2CCCCN(CC(=O)N3CCCC3)C2=O)cc1`, 494 nM.

For the origin of these results see ChEMBL document CHEMBL1155925, “Synthesis and evaluation of acylguanidine FXa inhibitors” (Bioorg Med Chem Lett, 2008).
